Holding throughout (format): cell-based
Test [1] deals with human EGFR exon 20 insertion NPG (H773_V774insNPG) (Homo sapiens, UniProt P00533, INS773NPG, cells depend on it). Description: Ba/F3-EGFR-Exon20-NPG cell anti-proliferative assay (CellTiter 96 MTS, 72 h). The following applies: read-out: EGFR exon 20 NPG insertion IC50.
Protocol: Ba/F3 cells expressing EGFR exon 20 insertions (named Ba/F3-EGFR-Exon20-NPG or Ba/F3-EGFR-Exon20-ASV) can proliferate in the absence of IL-3. The anti-proliferative activity of compounds were determined as follows: BaF3-EGFR-Exon20 cells (NPG or ASV) seeded in 96 well plates (2500 cells/well) were treated with test compound (dissolved in DMSO) at a series of concentrations (4-fold dilution, top concentration: 10,000 nM). The plates were incubated for 72 h in a 37° C. incubator with 5% CO2, and the number of viable cells in each well were measured indirectly by CellTiter 96® Aqueous One Solution Cell Proliferation Assay (Promega) This assay is a colorimetric method for determining the number of viable cells through measurement of their metabolic activity by detection of enzymatic conversion of tetrazolium salts into blue formazan derivatives. Reagent (20 μL) was added into each well, and the plates were returned to the incubator for 2 h. The absorbance in each well was then measured at 490 nm using an Envision plate reader (Perkin Elmer).
For test [2], the target named is Her2 exon 20 YVMA insertion (A775_G776ins YVMA) (Homo sapiens (Human), UniProt P04626, INS775YVMA). The test can be described thus: Ba/F3-Her2 Exon20 YVMA cell anti-proliferative assay (CellTiter 96 MTS, 72 h). The following applies: Ba/F3-Her2 Exon20 YVMA cells. From the text:
Ba/F3 cells expressing Her2 Exon20 YVMA insertions (named Ba/F3-Her2 Exon20 YVMA) can proliferate in the absence of IL-3.

Test [3] addresses human EGFR E746-A750 deletion and T790M Mutation (DT) (Homo sapiens (Human), UniProt P00533, DEL746-750/T790M). Description: Ba/F3-EGFR-Del/T790M cell anti-proliferative assay (CellTiter 96 MTS, 72 h). To be noted: Ba/F3-EGFR-Del/T790M cells; read-out: EGFR exon 19 deletion and T790M mutation IC50.
Protocol: An expression vector, pLVX-IRES puro (Clontech) coding for human EGFR E746-A750 deletion and T790M Mutation, was transfected into HEK293 cells by the Trans-Lentiviral ORF Packaging System (Thermo Scientific), to produce virus encoding EGFR exon 19 deletion and T790M mutations. […] Ba/F3 cells expressing EGFR E746-A750 deletion and T790M Mutation (named Ba/F3-EGFR-Del/T790M) can proliferate in the absence of IL-3. The anti-proliferative activity of compounds was determined as follows: BaF3-EGFR-Del/T790M cells seeded in 96 well plates (2500 cells/well) were treated with test compound (dissolved in DMSO) at a series of concentrations (4-fold dilution, top concentration: 10,000 nM). The plates were incubated for 72 h in a 37° C. incubator with 5% CO2, and the number of viable cells in each well were measured indirectly by CellTiter 96® Aqueous One Solution Cell Proliferation Assay (Promega; this assay is a colorimetric method for determining the number of viable cells through measurement of their metabolic activity by detection of enzymatic conversion of tetrazolium salts into blue formazan derivatives). Reagent (20 μL) was added into each well, and the plates were returned to the incubator for 2 h. The absorbance in each well was then measured at 490 nm using an Envision plate reader (Perkin Elmer).
For test [4], the target named is human EGFR exon 20 insertion ASV (V769_D770insASV) (Homo sapiens (Human), UniProt P00533, INS769ASV). Description: Ba/F3-EGFR-Exon20-ASV cell anti-proliferative assay (CellTiter 96 MTS, 72 h).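 Further: Ba/F3 cells bearing the EGFR exon 20 ASV insertion, a line able to proliferate without IL-3.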 The following applies: Ba/F3-EGFR-Exon20-ASV cells.
Sequence of human EGFR exon 20 insertion ASV (V769_D770insASV) (P00533 other isoform, or with tags, fused parts or gaps ins ASV behind 769): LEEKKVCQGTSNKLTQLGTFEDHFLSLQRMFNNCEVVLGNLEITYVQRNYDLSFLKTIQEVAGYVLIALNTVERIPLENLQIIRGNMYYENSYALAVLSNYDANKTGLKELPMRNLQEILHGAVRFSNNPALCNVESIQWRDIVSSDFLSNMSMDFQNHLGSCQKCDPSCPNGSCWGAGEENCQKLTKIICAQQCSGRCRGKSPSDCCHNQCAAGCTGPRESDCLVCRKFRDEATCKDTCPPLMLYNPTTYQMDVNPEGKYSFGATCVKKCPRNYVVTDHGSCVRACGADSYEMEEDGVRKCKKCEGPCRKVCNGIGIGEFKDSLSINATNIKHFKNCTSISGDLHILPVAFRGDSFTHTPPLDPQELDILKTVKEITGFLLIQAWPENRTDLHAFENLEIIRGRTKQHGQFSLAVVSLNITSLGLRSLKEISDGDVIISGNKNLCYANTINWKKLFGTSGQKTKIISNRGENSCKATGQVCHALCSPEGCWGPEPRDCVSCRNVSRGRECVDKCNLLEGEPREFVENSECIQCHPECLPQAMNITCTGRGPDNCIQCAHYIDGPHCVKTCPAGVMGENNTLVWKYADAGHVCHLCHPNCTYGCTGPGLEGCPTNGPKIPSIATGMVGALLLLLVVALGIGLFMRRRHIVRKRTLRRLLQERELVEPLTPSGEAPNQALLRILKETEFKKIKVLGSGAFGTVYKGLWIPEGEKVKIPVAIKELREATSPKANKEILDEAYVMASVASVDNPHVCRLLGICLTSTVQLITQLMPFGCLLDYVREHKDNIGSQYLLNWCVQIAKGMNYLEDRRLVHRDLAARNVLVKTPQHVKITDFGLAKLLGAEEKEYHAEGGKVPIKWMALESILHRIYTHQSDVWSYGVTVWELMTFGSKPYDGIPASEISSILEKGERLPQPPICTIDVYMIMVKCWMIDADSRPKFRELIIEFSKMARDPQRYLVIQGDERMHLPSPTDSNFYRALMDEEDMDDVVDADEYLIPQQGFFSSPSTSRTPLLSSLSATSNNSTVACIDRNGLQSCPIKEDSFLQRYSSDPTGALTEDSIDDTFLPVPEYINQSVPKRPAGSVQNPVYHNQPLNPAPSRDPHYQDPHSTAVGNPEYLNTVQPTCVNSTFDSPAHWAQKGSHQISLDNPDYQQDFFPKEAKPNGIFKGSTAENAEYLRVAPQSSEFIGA

Drawing on patent publication US10227342B2 (ARIAD PHARMACEUTICALS, INC., priority 2014, dated 2019), this text covers IC50 for 16 compounds.

Where only a bound is given, the exact number is not on record here.

Sequence of Her2 exon 20 YVMA insertion (A775_G776ins YVMA) (P04626 other isoform, or with tags, fused parts or gaps ins YVMA behind 775): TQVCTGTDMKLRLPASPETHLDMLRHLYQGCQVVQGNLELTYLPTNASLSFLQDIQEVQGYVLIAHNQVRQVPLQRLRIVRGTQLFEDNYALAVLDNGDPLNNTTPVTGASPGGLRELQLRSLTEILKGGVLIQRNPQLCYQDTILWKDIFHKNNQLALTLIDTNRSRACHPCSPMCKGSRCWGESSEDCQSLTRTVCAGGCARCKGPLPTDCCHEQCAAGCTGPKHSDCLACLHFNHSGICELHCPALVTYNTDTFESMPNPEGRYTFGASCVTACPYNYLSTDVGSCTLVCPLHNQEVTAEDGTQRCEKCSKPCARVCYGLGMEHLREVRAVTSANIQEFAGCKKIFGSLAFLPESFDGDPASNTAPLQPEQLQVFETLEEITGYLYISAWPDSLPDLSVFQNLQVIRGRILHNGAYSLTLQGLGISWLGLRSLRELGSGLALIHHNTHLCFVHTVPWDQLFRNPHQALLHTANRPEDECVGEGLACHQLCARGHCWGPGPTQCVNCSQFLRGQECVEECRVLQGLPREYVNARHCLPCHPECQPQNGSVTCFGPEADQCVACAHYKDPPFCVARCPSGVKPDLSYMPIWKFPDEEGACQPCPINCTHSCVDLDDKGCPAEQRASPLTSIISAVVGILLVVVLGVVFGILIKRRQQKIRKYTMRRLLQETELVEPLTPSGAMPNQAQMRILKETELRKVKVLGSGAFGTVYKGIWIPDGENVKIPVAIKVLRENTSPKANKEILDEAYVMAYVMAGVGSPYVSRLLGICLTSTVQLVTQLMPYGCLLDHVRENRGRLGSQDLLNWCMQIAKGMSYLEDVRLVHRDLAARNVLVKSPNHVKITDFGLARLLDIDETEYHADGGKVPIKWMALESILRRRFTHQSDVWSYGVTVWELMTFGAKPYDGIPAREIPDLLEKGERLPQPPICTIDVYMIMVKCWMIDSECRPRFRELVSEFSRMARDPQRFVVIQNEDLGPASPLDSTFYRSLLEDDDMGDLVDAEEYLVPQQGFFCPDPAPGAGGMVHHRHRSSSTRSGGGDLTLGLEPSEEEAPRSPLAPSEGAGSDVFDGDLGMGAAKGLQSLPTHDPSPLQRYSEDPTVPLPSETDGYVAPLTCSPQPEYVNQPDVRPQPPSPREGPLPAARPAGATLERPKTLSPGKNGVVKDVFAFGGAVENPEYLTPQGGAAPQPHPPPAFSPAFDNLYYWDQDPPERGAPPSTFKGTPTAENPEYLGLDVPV
Sequence of human EGFR exon 20 insertion NPG (H773_V774insNPG) (P00533 with tags, fused parts or gaps INS773NPG limits assumed): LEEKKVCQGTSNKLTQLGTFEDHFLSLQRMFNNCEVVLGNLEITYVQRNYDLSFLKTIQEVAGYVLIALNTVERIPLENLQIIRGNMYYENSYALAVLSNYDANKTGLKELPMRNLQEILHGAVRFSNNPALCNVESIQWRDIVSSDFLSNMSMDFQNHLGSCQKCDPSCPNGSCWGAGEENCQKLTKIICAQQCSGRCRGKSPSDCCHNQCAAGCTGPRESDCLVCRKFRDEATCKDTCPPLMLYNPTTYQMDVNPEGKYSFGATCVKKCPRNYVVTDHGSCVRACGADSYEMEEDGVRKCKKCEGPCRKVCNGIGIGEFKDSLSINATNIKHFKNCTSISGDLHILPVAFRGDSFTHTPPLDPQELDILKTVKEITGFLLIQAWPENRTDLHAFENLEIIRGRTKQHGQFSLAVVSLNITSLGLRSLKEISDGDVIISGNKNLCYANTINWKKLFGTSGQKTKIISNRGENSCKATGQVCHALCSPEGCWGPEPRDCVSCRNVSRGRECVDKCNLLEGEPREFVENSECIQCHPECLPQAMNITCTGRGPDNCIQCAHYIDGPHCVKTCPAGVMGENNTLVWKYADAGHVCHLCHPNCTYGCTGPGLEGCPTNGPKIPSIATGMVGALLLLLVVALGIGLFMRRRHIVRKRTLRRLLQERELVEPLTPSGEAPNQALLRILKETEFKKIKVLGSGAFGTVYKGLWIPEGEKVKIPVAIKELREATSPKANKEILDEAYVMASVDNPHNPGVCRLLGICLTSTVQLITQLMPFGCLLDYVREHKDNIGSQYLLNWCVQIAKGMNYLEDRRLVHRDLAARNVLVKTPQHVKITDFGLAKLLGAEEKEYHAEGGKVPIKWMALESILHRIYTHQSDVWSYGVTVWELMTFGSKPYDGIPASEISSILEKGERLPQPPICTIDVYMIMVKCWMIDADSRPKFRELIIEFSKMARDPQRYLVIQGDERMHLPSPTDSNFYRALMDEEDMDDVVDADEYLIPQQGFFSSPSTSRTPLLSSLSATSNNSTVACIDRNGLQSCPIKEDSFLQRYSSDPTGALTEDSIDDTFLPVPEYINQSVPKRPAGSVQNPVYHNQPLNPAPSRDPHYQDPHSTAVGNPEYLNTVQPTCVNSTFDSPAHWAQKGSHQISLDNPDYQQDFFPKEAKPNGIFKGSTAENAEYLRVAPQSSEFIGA
Sequence of human EGFR E746-A750 deletion and T790M Mutation (DT) (P00533 other isoform, or with tags, fused parts or gaps T790M/del E746-A750): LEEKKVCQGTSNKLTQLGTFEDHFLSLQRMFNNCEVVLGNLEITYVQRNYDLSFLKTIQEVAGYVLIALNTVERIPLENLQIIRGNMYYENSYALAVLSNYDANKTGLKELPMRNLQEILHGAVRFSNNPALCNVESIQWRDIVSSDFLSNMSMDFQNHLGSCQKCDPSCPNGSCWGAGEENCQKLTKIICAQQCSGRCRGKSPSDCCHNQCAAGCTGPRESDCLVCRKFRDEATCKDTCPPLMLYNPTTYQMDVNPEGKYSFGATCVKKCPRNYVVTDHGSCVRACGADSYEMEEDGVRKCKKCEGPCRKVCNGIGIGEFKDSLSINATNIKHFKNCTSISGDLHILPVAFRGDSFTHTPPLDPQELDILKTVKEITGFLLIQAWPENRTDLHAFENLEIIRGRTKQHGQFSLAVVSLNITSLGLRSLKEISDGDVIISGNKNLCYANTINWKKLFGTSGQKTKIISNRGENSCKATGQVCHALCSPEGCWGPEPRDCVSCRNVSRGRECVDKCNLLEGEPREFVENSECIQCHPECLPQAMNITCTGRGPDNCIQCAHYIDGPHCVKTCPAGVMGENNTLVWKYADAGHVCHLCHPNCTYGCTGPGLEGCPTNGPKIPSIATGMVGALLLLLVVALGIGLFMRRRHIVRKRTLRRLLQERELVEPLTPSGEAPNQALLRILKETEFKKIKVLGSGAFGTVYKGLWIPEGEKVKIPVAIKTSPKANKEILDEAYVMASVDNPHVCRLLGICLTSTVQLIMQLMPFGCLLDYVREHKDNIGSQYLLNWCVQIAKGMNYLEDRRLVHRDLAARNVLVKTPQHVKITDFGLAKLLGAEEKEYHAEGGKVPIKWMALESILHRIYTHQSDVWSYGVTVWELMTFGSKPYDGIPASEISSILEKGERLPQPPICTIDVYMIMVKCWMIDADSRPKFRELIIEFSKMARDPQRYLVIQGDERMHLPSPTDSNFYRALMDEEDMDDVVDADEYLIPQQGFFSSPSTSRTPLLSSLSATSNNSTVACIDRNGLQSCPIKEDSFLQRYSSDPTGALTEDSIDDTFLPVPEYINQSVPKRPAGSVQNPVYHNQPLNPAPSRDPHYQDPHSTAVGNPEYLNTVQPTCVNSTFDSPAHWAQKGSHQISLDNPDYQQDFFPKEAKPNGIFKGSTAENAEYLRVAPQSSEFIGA

Turning to `C=CC(=O)Nc1cc(Nc2ncc(C(=O)OC(C)C)c(-n3ccc4ccccc43)n2)c(OC)cc1N(C)C[C@H]1CCCN1C` [Example 61, isopropyl (R)-2-((5-acrylamido-2-methoxy-4-(methyl((1-methylpyrrolidin-2-yl)methyl)amino)phenyl)amino)-4-(1H-indol-1-yl)pyrimidine-5-carboxylate], the IC50 (in general, the concentration needed to halve the response being measured) in test [1] is less than 100 nM; in test [2] it was 100 to 500 nM; in test [3], less than 100 nM; in test [4], less than 100 nM.
Regarding `C=CC(=O)Nc1cc(Nc2ncc(NC(=O)C(C)(C)C)c(-c3cn(C)c4ccccc34)n2)c(OC)cc1OC` [Example 42, N-(2,4-dimethoxy-5-((4-(1-methyl-1H-indol-3-yl)-5-pivalamidopyrimidin-2-yl)amino)phenyl)acrylamide], the IC50 in test [1], in test [2], in test [3] and in test [4] was greater than 1000 nM throughout.
In the case of `C=CC(=O)Nc1cc(Nc2ncc(C(=O)OC)c(-c3cn(C)c4ccccc34)n2)c(OC)cc1CCCN(C)C` [Example 69, methyl 2-((5-acrylamido-4-(3-(dimethylamino)propyl)-2-methoxyphenyl)amino)-4-(1-methyl-1H-indol-3-yl)pyrimidine-5-carboxylate], the IC50 in test [1] is less than 100 nM; in test [2] it was 500 to 1000 nM; in test [3], less than 100 nM; in test [4], 100 to 500 nM.
As to `C=CC(=O)Nc1cc(Nc2ncc(Cl)c(-c3cnn4ccccc34)n2)c(OC)cc1N(C)CCN1CCOCC1` [Example 54, N-(5-((5-chloro-4-(pyrazolo[1,5-a]pyridin-3-yl)pyrimidin-2-yl)amino)-4-methoxy-2-(methyl(2-morpholinoethyl)amino)phenyl)-acrylamide], the results for the IC50 in test [1], in test [2] and in test [3] were 500 to 1000 nM, greater than 1000 nM and less than 100 nM, respectively.
Regarding `C=CC(=O)Nc1cc(Nc2ncc(Cl)c(-c3cn(C)c4ccccc34)n2)c(OC)cc1C#CCN(C)C` [Example 45, N-(5-((5-chloro-4-(1-methyl-1H-indol-3-yl)pyrimidin-2-yl)amino)-2-(3-(dimethylamino)prop-1-yn-1-yl)-4-methoxyphenyl)acrylamide], the IC50 is 100 to 500 nM in test [1], 500 to 1000 nM in test [2] and less than 100 nM in test [3].
As for `C=CC(=O)Nc1cc(Nc2ncc(CC)c(-c3cnn4ccccc34)n2)c(OC)cc1N(C)CCN(C)C` [Example 1, N-(2-((2-(dimethylamino)ethyl)(methyl)amino)-5-((5-ethyl-4-(pyrazolo[1,5-a]pyridin-3-yl)pyrimidin-2-yl)amino)-4-methoxyphenyl)acrylamide], the figures for the IC50 in test [1], in test [2] and in test [3] were less than 100 nM, 100 to 500 nM and less than 100 nM, respectively.
`C=CC(=O)Nc1cc(Nc2ncc(Cl)c(-c3cn(C)c4ccccc34)n2)c(OC)cc1C#CC(C)(C)N(C)C` [Example 46, N-(5-((5-chloro-4-(1-methyl-1H-indol-3-yl)pyrimidin-2-yl)amino)-2-(3-(dimethylamino)-3-methylbut-1-yn-1-yl)-4-methoxyphenyl)acrylamide]: the IC50 is 100 to 500 nM in test [1], 500 to 1000 nM in test [2] and less than 100 nM in test [3].
For the compound `C=CC(=O)Nc1cc(Nc2ncc(Cl)c(-c3cn(C)c4ccccc34)n2)c(OC)cc1O[C@@H](COCC)CN(C)C` [Example 44, (R)-N-(5-((5-chloro-4-(1-methyl-1H-indol-3-yl)pyrimidin-2-yl)amino)-2-((1-(dimethylamino)-3-ethoxypropan-2-yl)oxy)-4-methoxyphenyl)acrylamide], the IC50 in test [1] is 100 to 500 nM; in test [2], 500 to 1000 nM; in test [3] it was less than 100 nM.
In the case of `C=CC(=O)Nc1cc(Nc2ncc(Cl)c(-c3cnn4ccccc34)n2)c(OC)cc1OCCN1CCOCC1` [Example 50, N-(5-((5-chloro-4-(pyrazolo[1,5-a]pyridin-3-yl)pyrimidin-2-yl)amino)-4-methoxy-2-(2-morpholinoethoxy)phenyl)acrylamide], the IC50 is greater than 1000 nM in test [1], greater than 1000 nM in test [2] and less than 100 nM in test [3].
Regarding `C=CC(=O)Nc1cc(Nc2ncc(Cl)c(-c3cnn4ccccc34)n2)c(OC)cc1OCCN1CCCC1` [Example 49, N-(5-((5-chloro-4-(pyrazolo[1,5-a]pyridin-3-yl)pyrimidin-2-yl)amino)-4-methoxy-2-(2-(pyrrolidin-1-yl)ethoxy)phenyl)acrylamide], the IC50 in test [1] is 100 to 500 nM; in test [2], 500 to 1000 nM; in test [3] it was less than 100 nM.
Take `C=CC(=O)Nc1cc(Nc2nccc(-c3cn(C)c4ccccc34)n2)c(OC)cc1N(C)CCNC` [Example 57, N-(4-methoxy-2-(methyl(2-(methylamino)ethyl)amino)-5-((4-(1-methyl-1H-indol-3-yl)pyrimidin-2-yl)amino)phenyl)acrylamide]: the IC50 was less than 100 nM in test [1], 100 to 500 nM in test [2] and 100 to 500 nM in test [4].
For the compound `C=CC(=O)Nc1cc(Nc2ncc(Cl)c(-c3cnn4ccccc34)n2)c(OC)cc1N(C)CCN(CC)CC` [Example 53, N-(5-((5-chloro-4-(pyrazolo[1,5-a]pyridin-3-yl)pyrimidin-2-yl)amino)-2-((2-(diethylamino)ethyl)-(methyl)amino)-4-methoxyphenyl)acrylamide], the IC50 in test [1] was 100 to 500 nM; in test [2] it was 500 to 1000 nM; in test [3], less than 100 nM.
Taken in the same sequence, the figures for `C=CC(=O)Nc1cc(Nc2ncc(Cl)c(-c3cn(C)c4c5c(ccc34)CCC5)n2)c(OC)cc1N(C)CCN(C)C` [Example 43, N-(5-((5-chloro-4-(1-methyl-1,6,7,8-tetrahydrocyclopenta[g]indol-3-yl)pyrimidin-2-yl)amino)-2-((2-(dimethylamino)ethyl)(methyl)amino)-4-methoxyphenyl)acrylamide] were less than 100 nM, 100 to 500 nM and less than 100 nM.
`C=CC(=O)Nc1cc(Nc2ncc(Cl)c(-c3cnn4ccccc34)n2)c(OC)cc1N(C)CCN1CCN(C)CC1` [Example 27, N-(5-((5-chloro-4-(pyrazolo[1,5-a]pyridin-3-yl)pyrimidin-2-yl)amino)-4-methoxy-2-(methyl(2-(4-methylpiperazin-1-yl)ethyl)amino)phenyl)acrylamide]: the IC50 in test [1] is 500 to 1000 nM; in test [2] it was greater than 1000 nM; in test [3] it was less than 100 nM.
Regarding `C=CC(=O)Nc1cc(Nc2ncc(Cl)c(-c3cnn4ccccc34)n2)c(OC)cc1N(C)CCN(C)CCF` [Example 33, N-(5-((5-chloro-4-(pyrazolo[1,5-a]pyridin-3-yl)pyrimidin-2-yl)amino)-2-((2-((2-fluoroethyl)(methyl)amino)ethyl)(methyl)amino)-4-methoxyphenyl)acrylamide], the results for the IC50 in test [1], in test [2] and in test [3] were 100 to 500 nM, 500 to 1000 nM and less than 100 nM, respectively.
As to `C=CC(=O)Nc1cc(Nc2ncc(Cl)c(-c3cnn4ccccc34)n2)c(OC)cc1OC(COC)CN(CC)CC` (stereo not drawn) [Example 47, N-(5-((5-chloro-4-(pyrazolo[1,5-a]pyridin-3-yl)pyrimidin-2-yl)amino)-2-((1-(diethylamino)-3-methoxypropan-2-yl)oxy)-4-methoxyphenyl) acrylamide], the results for the IC50 in test [1], in test [2] and in test [3] were 100 to 500 nM, 500 to 1000 nM and less than 100 nM, respectively.
